Results: US20240408222A1, “COMPOUNDS, PHARMACEUTICAL COMPOSITIONS, AND METHODS FOR THE TREATMENT, PREVENTION, OR MANAGEMENT OF HYPERPRO[…]” (VINCERX PHARMA GMBH, priority 2021, published 2024)
Where a name gives a salt, the structure may show the parent alone.

How the values were obtained:
Experiment in all cases: Cytotoxicity assay (Version 2, automated, AC50) with/without neutrophil elastase
Conditions in all cases: Version 2, activity concentration at −50%
[1] = test system: 786-O; format: cell-based, human
Procedure: (§1) Cultivation of cells was performed according to standard procedures with the media recommended by the provider. The cells, in a total volume of 100 μL, were seeded in a 96-well plate with a white bottom (#3610). After a 24 h incubation period at 37° C. and […], the medium was exchanged by adding 90 μL fresh medium. The treatment started by adding the test compound in 10 μL of culture medium to the cells in triplicates. Concentrations ranging from 10^−5 M to 10^−13 M were chosen. Two identically treated sets of samples were prepared. One set was treated with the test compound alone, whereas to the second set the compound and 10 nM elastase was added followed by a 72 h incubation period at 37° C. and […]. The proliferation was detected using the MTT assay (ATCC). At the end of the incubation period the MTT reagent was added to all samples for 4 h. Lysis of the cells followed by addition of the detergent was done overnight. The formed dye was detected at 570 nm. The proliferation of untreated but otherwise identically handled cells was define as the 100% value.
(§2) The cytotoxicity assay (Version 2) was performed as described above. Some changes were applied as the assays were performed in an automated fashion and the IC50 values determination was changed. Here the change in metabolic activity of the cells, in percent, was calculated by normalization of the measured values to the absorbance values of medium containing wells without cells (═−100%) and the absorbance of the DMSO-treated cells (═0%). AC50 values (activity concentration at −50%) were determined by means of a 4 parameter Hill-fit using GeneData Screener software.

[2] = test system: NCI H292; format: cell-based, human
Procedure: as §1, §2

[3] = test system: HT29; format: cell-based, human
Procedure: as §1, §2

[4] = test system: SUM149; format: cell-based
Procedure: as §1, §2

[5] = without (−) neutrophil elastase
[6] = NCI H292, with (+) neutrophil elastase
[7] = NCI H292, without (−) neutrophil elastase
[8] = HT29, with (+) neutrophil elastase
[9] = HT29, without (−) neutrophil elastase
[10] = SUM149, with (+) neutrophil elastase
[11] = SUM149, without (−) neutrophil elastase

| Compound | AC50 ([1]; with (+) neutrophil elastase) [nM] | AC50 [1, 5] [nM] | AC50 [2, 6] [nM] | AC50 [2, 7] [nM] | AC50 [3, 8] [nM] | AC50 [3, 9] [nM] | AC50 [4, 10] [nM] | AC50 [4, 11] [nM] |
| --- | --- | --- | --- | --- | --- | --- | --- | --- |
| CCCNC(=O)Nc1cccc(S(=O)(=O)Nc2cccc([C@@H](CC(=O)O)NC(=O)Nc3ccc(NC(=O)NCCOCCOCCOCCC(=O)NCCCC[C@H](NC(=O)CCOCCOCCOCCNC(=O)Nc4ccc(NC(=O)N[C@H](CC(=O)O)c5cccc(NS(=O)(=O)c6cccc(NC(=O)NCCC)c6)c5)cc4)C(=O)NCCOCCOCCOCCC(=O)N[C@@H](CC(=O)O)C(=O)N4CCC[C@H]4C(=O)N[C@H](C(=O)N=[S@](C)(=O)Cc4cc5cc(c4)O[C@H](C)CCOc4cc(F)ccc4-c4nc(ncc4F)N5)C(C)C)cc3)c2)c1 (relative stereo) [Compound 31] | ≤ 10 | > 1000 | ≤ 10 | 100 to 1000 | ≤ 10 | > 1000 | ≤ 10 | 100 to 1000 |
| CCCNC(=O)Nc1cccc(S(=O)(=O)Nc2cccc([C@H](CC(=O)O)NC(=O)Nc3ccc(NC(=O)NCCOCCOCCOCCC(=O)N[C@@H](CCCCNC(=O)CCOCCOCCOCCNC(=O)Nc4ccc(NC(=O)N[C@H](CC(=O)O)c5cccc(NS(=O)(=O)c6cccc(NC(=O)NCCC)c6)c5)cc4)C(=O)NCCOCCOCCOCCC(=O)N[C@@H](CC(=O)O)C(=O)N4CCC[C@H]4C(=O)N[C@H](C(=O)N=S(C)(=O)Cc4cc5nc(c4)OCCCOc4cc(F)ccc4-c4cc(ncc4F)N5)C(C)C)cc3)c2)c1 (relative stereo) [Compound 32] | ≤ 10 | 100 to 1000 | ≤ 10 | 100 to 1000 | ≤ 10 | > 1000 | ≤ 10 | 100 to 1000 |
| CCCNC(=O)Nc1cccc(S(=O)(=O)Nc2cccc([C@@H](CC(=O)O)NC(=O)Nc3ccc(NC(=O)NCCOCCOCCOCCC(=O)N[C@@H](CC(=O)O)C(=O)N4CCC[C@H]4C(=O)N[C@H](C(=O)N=S(C)(=O)Cc4cc5cc(c4)OCCCCOc4cc(F)ccc4-c4nc(ncc4F)N5)C(C)C)cc3)c2)c1 (relative stereo) [Compound 36] | 11 to 100 | 100 to 1000 | 11 to 100 | 100 to 1000 | 11 to 100 | 100 to 1000 | 11 to 100 | 100 to 1000 |
| CCCNC(=O)Nc1cccc(S(=O)(=O)Nc2cccc([C@@H](CC(=O)O)NC(=O)Nc3ccc(NC(=O)NCCOCCOCCOCCC(=O)N[C@@H](CC(=O)O)C(=O)N4CCC[C@H]4C(=O)N[C@@H](C(=O)N=[S@@](C)(=O)Cc4cc5cc(c4)O[C@@H](C)CCOc4cc(F)ccc4-c4nc(ncc4F)N5)C(C)C)cc3)c2)c1 (relative stereo) [Compound 39, N-(14-{4-[({(1R)-2-carboxy-1-[3-({3-[(propylcarbamoyl)amino]benzene-1-sulfonyl}amino)phenyl]ethyl}carbamoyl)amino]anilino}-14-oxo-4,7,10-trioxa-13-azatetradecanan-1-oyl)-L-alpha-aspartyl-L-prolyl-N—[(R*)—{[(4R*)-15,19-difluoro-4-methyl-3,4-dihydro-2H,11H-12,16-(azeno)-10,6-(metheno)-1,5,11,13-benzodioxadiazacyclooctadecin-8-yl]methyl}(methyl)oxo-lambda^6-sulfanylidene]-D-valinamide] | ≤ 10 | 100 to 1000 | ≤ 10 | 100 to 1000 | ≤ 10 | 100 to 1000 | ≤ 10 | 100 to 1000 |
| CCCNC(=O)Nc1cccc(S(=O)(=O)Nc2cccc([C@@H](CC(=O)O)NC(=O)Nc3ccc(NC(=O)NCCOCCOCCOCCC(=O)N[C@@H](CC(=O)O)C(=O)N4CCC[C@H]4C(=O)N[C@H](C(=O)N=[S@](C)(=O)Cc4cc5nc(c4)O[C@@H](C)CCCCOc4cc(F)ccc4-c4cc(ncc4F)N5)C(C)C)cc3)c2)c1 (relative stereo) [Compound 55] | 11 to 100 | > 1000 | 11 to 100 | > 1000 | 11 to 100 | > 1000 | ≤ 10 | > 1000 |
| CCCNC(=O)Nc1cccc(S(=O)(=O)Nc2cccc([C@@H](CC(=O)O)NC(=O)Nc3ccc(NC(=O)NCCOCCOCCOCCC(=O)N[C@@H](CC(=O)O)C(=O)N4CCC[C@H]4C(=O)N[C@H](C(=O)N=[S@](C)(=O)Cc4cc5nc(c4)O[C@H](C)CCCCOc4cc(F)ccc4-c4cc(ncc4F)N5)C(C)C)cc3)c2)c1 (relative stereo) [Compound 56] | 11 to 100 | > 1000 | 11 to 100 | > 1000 | 11 to 100 | > 1000 | 11 to 100 | 100 to 1000 |
| CCCNC(=O)Nc1cccc(S(=O)(=O)Nc2cccc([C@@H](CC(=O)O)NC(=O)Nc3ccc(NC(=O)NCCOCCOCCOCCC(=O)N[C@@H](CC(=O)OCCC[N+](C)(C)C)C(=O)N4CCC[C@H]4C(=O)N[C@H](C(=O)N=S(C)(=O)Cc4cc5cc(c4)OCCCCOc4cc(F)ccc4-c4nc(ncc4F)N5)C(C)C)cc3)c2)c1 (single isomer, unassigned) [Compound 20, trifluoroacetate] | 11 to 100 | > 1000 | 11 to 100 | > 1000 | 11 to 100 | > 1000 | 11 to 100 | 100 to 1000 |
| CCCNC(=O)Nc1cccc(S(=O)(=O)Nc2cccc([C@@H](CC(=O)O)NC(=O)Nc3ccc(NC(=O)NCCOCCOCCOCCC(=O)N[C@@H](CC(=O)OCCCCN(C)C)C(=O)N4CCC[C@H]4C(=O)N[C@H](C(=O)N=S(C)(=O)Cc4cc5cc(c4)OCCCCOc4cc(F)ccc4-c4nc(ncc4F)N5)C(C)C)cc3)c2)c1 (single isomer, unassigned) [Compound 21] | 11 to 100 | > 1000 | 11 to 100 | 100 to 1000 | 11 to 100 | > 1000 | 11 to 100 | 100 to 1000 |
| CCCNC(=O)Nc1cccc(S(=O)(=O)Nc2cccc([C@@H](CC(=O)O)NC(=O)Nc3ccc(NC(=O)NCCN(C)CCN(C)CCN(C)CC(=O)N[C@@H](CC(N)=O)C(=O)N4CCC[C@H]4C(=O)N[C@H](C(=O)N=[S@@](C)(=O)Cc4cc5cc(c4)O[C@@H](C)CCOc4cc(F)ccc4-c4nc(ncc4F)N5)C(C)C)cc3)c2)c1 (single isomer, unassigned) [Compound 24] | ≤ 10 | 100 to 1000 | ≤ 10 | 100 to 1000 | ≤ 10 | 100 to 1000 | ≤ 10 | 100 to 1000 |
| CCCNC(=O)Nc1cccc(S(=O)(=O)Nc2cccc([C@@H](CC(=O)O)NC(=O)Nc3ccc(NC(=O)NCCOCCOCCOCCC(=O)NCCNC(=O)CC[C@H](NC(=O)CCCC(=O)NCCN(C)CCN(C)CCN(C)CC(=O)N[C@@H](CC(N)=O)C(=O)N4CCC[C@H]4C(=O)N[C@H](C(=O)N=[S@@](C)(=O)Cc4cc5cc(c4)OCCCCOc4cc(F)ccc4-c4nc(ncc4F)N5)C(C)C)C(=O)NCCNC(=O)CCOCCOCCOCCNC(=O)Nc4ccc(NC(=O)N[C@H](CC(=O)O)c5cccc(NS(=O)(=O)c6cccc(NC(=O)NCCC)c6)c5)cc4)cc3)c2)c1 [Compound 25] | 11 to 100 | > 1000 | 11 to 100 |  | 11 to 100 | > 1000 | 11 to 100 | 100 to 1000 |
| disodium 1-{(2S)-2-(carboxylatomethyl)-17-[4-({[(1R)-2-carboxylato-1-{3-[({3-[(propylcarbamoyl)amino]phenyl}sulfonyl)amino]phenyl}ethyl]carbamoyl}amino)anilino]-4,17-dioxo-7,10,13-trioxa-3,16-diazaheptadecan-1-oyl}-L-prolyl-N—[(R*)—{[15,19-difluoro-3,4-dihydro-2H,11H-10,6-(azeno)-12,16-(metheno)-1,5,11,13-benzodioxadiazacyclooctadecin-8-yl]methyl}(methyl)oxido-lambda^6-sulfanylidene]-L-valinamide [Compound 42] | ≤ 10 | 100 to 1000 | ≤ 10 | 100 to 1000 | ≤ 10 | > 1000 | ≤ 10 | 100 to 1000 |
